Assay results taken from publication PMC9144936, “New Cu^+2 Complexes with N-Sulfonamide Ligands: Potential Antitumor, Antibacterial, and Antioxidant Agents” (Molecules, 2022).

Assays:
[1] = SOD mimetic activity, xanthine/xanthine oxidase system, NBT reduction; format: biochemical; details: pH 7.8, read-out: SOD-like activity IC50 (50% inhibition of NBT reduction)
Description: The SOD-like activities of complexes C1 and C2 were determined by an indirect method using the xanthine/xanthine oxidase system as the source of superoxide radicals. […] The IC50 value for native Cu2Zn2SOD is 0.006 μΜ. Thus, the IC50 values for both complexes are higher than the IC50 value for native Cu2Zn2SOD but are similar to those of complexes with related sulfonamide ligands presented in the literature.
The in vitro SOD mimetic activities of the complexes were assayed using the Oberley and Spitz method with some minor modifications. To generate a reproductible and constant flux of superoxide anions, xanthine (1.5 × 10^−4 M) and xanthine oxidase in 50 mM potassium phosphate buffer, pH = 7.8, were used. The superoxide anions were detected by the reduction of nitro blue tetrazolium (NBT) (5.6 × 10^−5 M) to blue formazane, which was determined spectrophotometrically at 560 nm. Different concentrations of the complexes (50, 25, 12.5, 2, and 0.2 μM) were prepared in 50 mM Tris-HCl buffer, pH = 7.8. For each determination, 0.1 mL complex solution + 0.1 mL xanthine oxidase were added to 0.8 mL of solution containing 0.69 mL potassium phosphate buffer (pH = 7.8), 0.025 mL NBT, and […]. The inhibition percentage of NBT reduction was used to determine the SOD activities of the complexes. The conversion of xanthine to uric acid was measured at 310 nm. The % inhibition of enzyme activity was subtracted from that of NBT. The IC50 values (the concentration of complex needed to yield 50% inhibition of NBT reduction) were determined from plots of % inhibition versus complex concentration. A Specord 200 Plus Spectrophotometer was used to perform the determinations and all reagents were purchased from Sigma-Aldrich.

[2] = system: human radical growth phase melanoma cell line (WM35); test: MTT cytotoxicity assay, WM35; format: cell-based; details: for IC50: WM35 cells, MTT
Description: Three cell lines were used to determine the cytotoxicity of the complexes, a human cervical carcinoma line (HeLa), a human radical growth phase melanoma cell line (WM35), and a normal fibroblastic epithelial cell line (HFL1) using the MTT method. The cells were exposed to C1 and C2 complexes in different concentrations (50, 25, 12.5, 2, and 0.2 µM) at 24, 48, and 72 h. As positive contro, cisplatin was used.
To determine the cytotoxicity of the copper complexes, three cell lines were used: a human cervical carcinoma line (HeLa), a human radical growth phase melanoma cell line (WM35), and a normal fibroblastic epithelial cell line (HFL1). The cell lines were obtained from ATCC (American Type Cell Collection, Manassas, VA 20110-2209, USA) and were maintained in DMEM (Sigma-Aldrich, Saint Louis, Missouri, USA) supplemented with 10% fetal bovine serum (Hyclone), 1 mM glutamine (Sigma-Aldrich), and 1% antibiotic antimycotic 100× (Sigma-Aldrich). The cells were cultured at 37 °C in an atmosphere of 5% CO2 and 95% relative humidity.
The cytotoxicity assays were performed using the MTT assay (3-(4,5-dimethylthiazol-2-yl)-2,5-diphenyl tetrazolium bromide-Sigma Aldrich). Cells were plated at a density of 1 × 10^5 cells/well in 96-well plates for 24 h in normal propagation media. The cultures were then exposed to C1 and C2 complexes in different concentrations (50, 25, 12.5, 2, and 0.2 µM). The complexes were first solubilized in DMSO (Sigma) and then serial dilutions in media were performed until the final concentration of DMSO was less than 1%. As a positive control, cisplatin (Ebewe Pharma Ges.m.b.H. Nfg. KG, Austria) was used, in the same concentrations as the complexes. As a negative control, cell lines cultivated in normal expansion medium with the same amount of DMSO added were used. The cellular viability was determined using the MTT assay at 24, 48, and 72 h, respectively. Formazan particles were solubilized with DMSO and absorbances were determined at 550 nm using a microplate reader (Bio-Rad, Hercules, CA, USA). The cytotoxic activity, expressed as IC50 values representing the complex solution required to inhibit 50% of the cell proliferation, were calculated from the calibration curve by nonlinear regression. Each experiment was carried out in triplicate.

[3] = system: Escherichia coli ATCC 10536; test: Disk diffusion method, E. coli; format: cell-based; details: complexes 5 µL of 1 mg/mL; 25 µg Amoxicillin, 5 µg Norfloxacin; 24 h, 37 °C
From the text: The disk diffusion method was used to determine the antibacterial activity of the C1 and C2 copper complexes on four reference microbial strains, two Gram-positive (Staphylococcus aureus and Bacillus cerreus) and two Gram-negative (Escherichia coli and Pseudomonas aeruginosa) strains. The disk diffusion method was used to determine the antibacterial activity of the C1 and C2 copper complexes. The method was adapted for the purposes of the current study, according to the standards developed by the Clinical and Laboratory Standards Institute. Four reference microbial strains, two Gram-positive (Staphylococcus aureus ATCC […] and Bacillus cerreus ATCC 14579) and two Gram-negative (Escherichia coli ATCC 10536 and Pseudomonas aeruginosa ATCC 27853) strains, were used for in vitro susceptibility testing. These reference microbial strains were obtained from the American Type Culture Collection (ATCC, Manassas, VA, USA). As positive controls, Amoxicillin (Oxoid Ltd., Basingstoke, UK) and Norfloxacin (Sigma-Aldrich) were used. For each of the four species, an initial suspension of bacterial cultures was inoculated on nutrient agar plates (Merck KGaA, Darmstadt, Germany), incubated for 24 h at 37 ± 2 °C and resuspended in a physiological saline buffer to a […] concentration (on a 0.5 McFarland scale), and further inoculated on Muëller Hinton agar plates (Merck KGaA, Darmstadt, Germany). […] After inoculation, the medium surface was dried and 8 wells were radially drilled 1.5 cm from the outer edge, 3 cm apart. From aliquot samples of 1 mg/mL of each copper complex dissolved in DMSO and incorporated in sterile liquid medium, 5 μL was placed in each of the 8 wells and left for 30 min to diffuse into the agar plates. The plates were then incubated for 24 h at 37 ± 2 °C. Then, 25 μg Amoxicillin and 5 μg Norfloxacin served as a positive controls, while DMSO 0.75% was used as a negative control. Readings were conducted by measuring the diameter of the inhibition zone (Halo Zone Test, in mm). The germ sensitivity of the copper complexes was estimated by comparing the diameter of the inhibition area to that generated by the regular antibiotics with known inhibition values. […] All tests were triplicated, and the measured diameters of the inhibition zone were expressed (in mm) as mean ± standard deviation.

[Cu(N-(5-(4-Methylphenyl)-[1,3,4]-Thiadiazole-2-yl) Naphtalenesulfonamidate)2(H2O)3] [C1]
IC50 [1]: 0.283 µM
IC50 ([2]; 24 h): 41.35 ± 0.19 µM
IC50 ([2]; 48 h): 23.87 ± 0.17 µM
IC50 ([2]; 72 h): 15.42 ± 0.08 µM
Halo Zone Test (diameter of the inhibition zone) [3]: 14 ± 0.11 mm

[Cu(N-(5-Ethyl--[1,3,4]-Thiadiazole-2-yl) Naphtalenesulfonamidate)2(py)2(H2O)] [C2]
IC50 [1]: 0.174 µM
IC50 value compared with cisplatin ([2]; WM35 cell lines, 24 h): about two times lower
IC50 ([2]; 24 h): 13 ± 0.15 µM
IC50 ([2]; 48 h): 8.11 ± 0.13 µM
IC50 ([2]; 72 h): 4.66 ± 0.07 µM
Halo Zone Test (diameter of the inhibition zone) [3]: 16 ± 0.21 mm
